Assays:
PPAR gamma = assay: PPAR-gamma transactivation assay (luciferase reporter, CV1 cells expressing PPARγ); type: cell-based, human; settings: for Fold Activation PPAR gamma: 36 h incubation, luciferase activity relative to control
Source text: (§1) Analysis of the activation of PPARα and PPARγ is based on the transfection of a DNA allowing the expression of a reporter gene (the gene of luciferase) under the control of the PPARs, either endogenous in the case of PPARγ or exogenous in the case of PPARα. The reporter plasmid J3TkLuc comprises three copies of the response element for PPARs of the human apo A-II gene (Staels, B et al. (1995), J. Clin. Invest., 95, 705-712) which are cloned upstream of the promoter of the thymidine kinase gene of the herpes simplex virus in the plasmid pGL3. This reporter gene was obtained by subcloning, in the plasmid pGL3, the plasmid J3TkCAT described above (Fajas, L et al. (1997), J. Biol. Chem., 272, 18779-18789). […] These cells were inoculated at the rate of 20,000 cells per well (96-well plates) and transfected with 150 ng of reporter DNA complexed with a mixture of lipids. In the case of the SK-Hep1 cells, an expression vector for PPARα, described by Sher, T. et al. (1993), Biochemistry, 32, 5598-5604, is cotransfected. After 5 hours, the cells are washed twice and incubated for 36 hours in the presence of the test compound in a fresh culture medium comprising 10% foetal calf serum. At the end of incubation, the cells are lysed and the luciferase activity is measured.

[1] = test system: epidermal differentiation proteins; assay: In vitro expression of epidermal differentiation proteins; type: cell-based; settings: own unpublished results
B16-V melanoma cells = assay: Inhibition of melanin synthesis in B16-V melanoma cells (whitening activity); type: cell-based; settings: 72 h, alpha-MSH stimulation, FIG. 1
Protocol: B16-V melanoma cells were incubated for 72 h with assay medium containing different amounts of test substances. The concentration depends on the results of the MTT-Assay. Only concentrations without effect on viability (after 24 h incubation) were used for further melanin evaluation. Every 24 hours medium was changed and replaced by fresh assay medium containing the compounds and alpha-MSH (stimulation of melanin synthesis). The cell number was determined and the cells got lysed using 1M NaOH. Afterwards the amount of melanin was measured at 405 nm with a microplatereader (Safire2™, Tecan). Different concentrations of synthetic melanin were used to produce a calibration curve. Melanin content was expressed as pg/cell.

PPAR alpha = target: T1, PPAR alpha (Homo sapiens, UniProt Q07869); assay: PPAR-alpha transactivation assay (luciferase reporter, SK-Hep1 cells cotransfected with PPARα expression vector); type: cell-based; settings: for Fold Activation PPAR alpha: 36 h incubation, luciferase activity relative to control
T1 construct: expressed in transfected cells; host or cells: human SK-Hep1 cells
T1 sequence (Q07869 1-468): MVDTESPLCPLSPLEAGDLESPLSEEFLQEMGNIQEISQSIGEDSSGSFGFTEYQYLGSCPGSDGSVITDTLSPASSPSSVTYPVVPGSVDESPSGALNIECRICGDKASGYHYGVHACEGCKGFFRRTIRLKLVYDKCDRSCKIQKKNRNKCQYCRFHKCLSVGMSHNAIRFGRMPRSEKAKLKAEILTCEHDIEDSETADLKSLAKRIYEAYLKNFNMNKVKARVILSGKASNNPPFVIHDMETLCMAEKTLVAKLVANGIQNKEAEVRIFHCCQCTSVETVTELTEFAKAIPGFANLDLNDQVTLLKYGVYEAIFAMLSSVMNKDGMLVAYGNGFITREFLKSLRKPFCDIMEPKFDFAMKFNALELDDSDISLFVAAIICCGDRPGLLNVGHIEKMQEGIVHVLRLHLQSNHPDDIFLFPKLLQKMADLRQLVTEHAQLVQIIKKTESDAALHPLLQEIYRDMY
Source text: as §1

Question: Which “PPAR-gamma activation (in words)” value (PPAR gamma) does the source give for `CCOC(=O)c1c(C)n(CC(C)C)c2ccc(OC(C)(C(=O)O)c3ccccc3)cc12` (stereo not shown) [Compound, 2-Phenyl-2-(1-isobutyl-2-methyl-3-ethoxycarbonyl-5-indolyloxy)-propionic acid] here?
Answer: activator

Question: What about the “Fold Activation PPAR gamma” value (PPAR gamma; 0.1 μm) of the same compound?
Answer: 0.6 fold

Question: And the “Fold Activation PPAR gamma” value (PPAR gamma; 0.3 μm)?
Answer: 1.8 fold

Question: And the “Fold Activation PPAR gamma” value (PPAR gamma; 1 μm)?
Answer: 2.8 fold

Question: And the “Fold Activation PPAR gamma” value (PPAR gamma; 3 μm)?
Answer: 3.0 fold

Question: And the “Fold Activation PPAR gamma” value (PPAR gamma; 6.25 μm)?
Answer: 12.9 fold

Question: And the “Fold Activation PPAR gamma” value (PPAR gamma; 10 μm)?
Answer: 4.3 fold

Question: What about the “Fold Activation PPAR gamma” value (PPAR gamma; 12.5 μm) of the same compound?
Answer: 16.9 fold

Question: And the “Fold Activation PPAR gamma” value (PPAR gamma; 25 μm)?
Answer: 18.7 fold

Question: And the “Fold Activation PPAR gamma” value (PPAR gamma; 30 μm)?
Answer: 7.6 fold

Question: And the “Fold Activation PPAR gamma” value (PPAR gamma; 50 μm)?
Answer: 18.8 fold

Question: What about the “expression of epidermal differentiation proteins” value [1] of the same compound?
Answer: increased expression of epidermal differentiation proteins

Question: And the melanin inhibiting activity (B16-V melanoma cells)?
Answer: superb melanin inhibiting activity

Question: And the “melanin inhibiting activity compared with kojic acid” value (B16-V melanoma cells)?
Answer: significantly better than kojic acid

Question: And the “PPAR-alpha activation (in words)” value (PPAR alpha)?
Answer: activator

Question: And the “Fold Activation PPAR alpha” value (PPAR alpha; 0.1 μm)?
Answer: 1.0 fold

Question: What about the “Fold Activation PPAR alpha” value (PPAR alpha; 0.3 μm) of the same compound?
Answer: 1.3 fold

Question: And the “Fold Activation PPAR alpha” value (PPAR alpha; 1 μm)?
Answer: 1.9 fold

Question: And the “Fold Activation PPAR alpha” value (PPAR alpha; 3 μm)?
Answer: 2.3 fold

Question: And the “Fold Activation PPAR alpha” value (PPAR alpha; 6.25 μm)?
Answer: 10.2 fold

Question: And the “Fold Activation PPAR alpha” value (PPAR alpha; 10 μm)?
Answer: 6.7 fold

Question: What about the “Fold Activation PPAR alpha” value (PPAR alpha; 12.5 μm) of the same compound?
Answer: 21.6 fold

Question: And the “Fold Activation PPAR alpha” value (PPAR alpha; 25 μm)?
Answer: 34.8 fold

Question: What about the “Fold Activation PPAR alpha” value (PPAR alpha; 30 μm) of the same compound?
Answer: 31.1 fold

Question: And the “Fold Activation PPAR alpha” value (PPAR alpha; 50 μm)?
Answer: 42.0 fold

From US9700501B2, “Use of indole compounds as a cosmetic” (MERCK PATENT GESELLSCHAFT MIT BESCHRANKTER HAFTUNG, priority 2008, dated 2017)
